Broadly, the inhibition is the share of the control response that was lost under treatment. Low readings indicate a response near the control, high ones a response far below the control.

The target of test [1] is T1, human salivary α-amylase (Homo sapiens, UniProt P0DUB6).
T1 construct: gene AMY1A; human salivary α-amylase type IX-A (Sigma-Aldrich)
T1 sequence (P0DUB6 16-511): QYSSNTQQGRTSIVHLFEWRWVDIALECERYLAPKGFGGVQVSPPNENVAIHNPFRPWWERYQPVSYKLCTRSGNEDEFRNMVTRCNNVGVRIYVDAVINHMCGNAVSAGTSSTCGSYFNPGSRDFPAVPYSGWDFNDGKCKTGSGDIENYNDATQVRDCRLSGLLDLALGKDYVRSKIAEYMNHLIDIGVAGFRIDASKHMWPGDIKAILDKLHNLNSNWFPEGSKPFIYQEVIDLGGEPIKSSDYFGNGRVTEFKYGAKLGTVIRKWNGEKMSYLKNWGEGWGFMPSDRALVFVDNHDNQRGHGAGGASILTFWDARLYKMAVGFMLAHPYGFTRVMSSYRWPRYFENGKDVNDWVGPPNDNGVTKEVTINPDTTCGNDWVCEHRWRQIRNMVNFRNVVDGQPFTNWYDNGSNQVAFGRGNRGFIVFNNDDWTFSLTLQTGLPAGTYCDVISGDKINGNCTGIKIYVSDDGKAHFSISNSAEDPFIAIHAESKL
As to the kind of experiment: enzyme inhibition with amylose substrate, DNS readout after SPE; very weak. The test is classed as biochemical.

Test [2] deals with T1, human salivary α-amylase. As to the kind of experiment: enzyme inhibition with amylose substrate, DNS readout after SPE; plateau at […] inhibition at […]. The test is classed as biochemical.

In the case of `O=C(/C=C/c1ccc(O)c(O)c1)O[C@@H]1C[C@](O)(C(=O)O)C[C@@H](O)[C@H]1O` [5-CQA, 5-caffeoylquinic acid], the inhibition at 5000 µM on human salivary α-amylase [1] came out at 20.5%.

On human salivary α-amylase [2], `COc1ccc(C=CC(=O)O)cc1OC` [3,4-dimethoxycinnamic acid] yielded an inhibition at 600 µM of 32%.

These data come from paper PMC6143438, “Chlorogenic and phenolic acids are only very weak inhibitors of human salivary α-amylase and rat intestinal maltase activities” (Food Research International (Ottawa, Ont.), 2018).
